Experimental data from patent publication US20130303532A1, “IMIDAZOPYRAZINES FOR USE AS MPS-1 AND TKK INHIBITORS IN THE TREATMENT HYPERPROLIFERATIVE DISORDERS” (BAYER INTELLECTUAL PROPERTY GmbH, priority 2010, published 2013).

These compounds were tested against T1, human kinase Mps-1 (Homo sapiens, UniProt P33981) (assay: Mps-1 kinase assay (TR-FRET)). Details: Mps1 IC50 [nM], N-terminally GST-tagged human full length recombinant Mps-1; 10 μM ATP; 1 μM biotinylated peptide substrate; 60 min at 22° C.
T1 construct: N-terminally GST-tagged human full length recombinant Mps-1 kinase; GST (N); purchased Invitrogen, Karslruhe, Germany PV4071
T1 sequence (P33981 1-857): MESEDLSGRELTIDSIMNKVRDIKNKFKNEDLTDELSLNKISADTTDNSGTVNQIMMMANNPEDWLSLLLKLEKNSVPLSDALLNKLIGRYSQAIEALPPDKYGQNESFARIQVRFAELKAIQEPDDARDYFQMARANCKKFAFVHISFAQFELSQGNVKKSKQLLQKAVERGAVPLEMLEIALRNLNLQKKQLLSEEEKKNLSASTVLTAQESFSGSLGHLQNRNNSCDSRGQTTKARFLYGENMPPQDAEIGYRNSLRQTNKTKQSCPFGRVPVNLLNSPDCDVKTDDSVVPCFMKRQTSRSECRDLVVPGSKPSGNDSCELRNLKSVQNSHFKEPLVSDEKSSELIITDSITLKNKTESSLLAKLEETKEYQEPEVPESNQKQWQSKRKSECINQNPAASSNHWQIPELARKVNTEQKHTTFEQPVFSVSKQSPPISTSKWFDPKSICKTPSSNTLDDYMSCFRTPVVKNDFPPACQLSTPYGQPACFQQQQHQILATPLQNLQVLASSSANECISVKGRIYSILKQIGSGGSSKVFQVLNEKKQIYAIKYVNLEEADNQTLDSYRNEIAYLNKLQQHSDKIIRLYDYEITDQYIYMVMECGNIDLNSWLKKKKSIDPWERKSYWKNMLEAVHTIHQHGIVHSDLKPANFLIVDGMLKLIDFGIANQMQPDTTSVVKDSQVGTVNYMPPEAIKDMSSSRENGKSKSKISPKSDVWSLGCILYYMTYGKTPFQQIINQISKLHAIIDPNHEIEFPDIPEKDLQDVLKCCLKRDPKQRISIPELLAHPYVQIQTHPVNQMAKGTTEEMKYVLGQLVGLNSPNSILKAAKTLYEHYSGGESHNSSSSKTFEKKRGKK
Format: biochemical

Structure (SMILES)	IC50
Cc1cc(-c2cnc3c(NCCC#N)nccn23)ccc1C(=O)NC1CC1 [Example 7-111, 4-{8-[(2-cyanoethyl)amino]imi-dazo[1,2-a]pyrazin-3-yl}-N-cyclopropyl-2-methylbenzamide]	49.7 nM
Cc1cc(-c2cnc3c(NCC(O)C(F)(F)F)nccn23)ccc1C(=O)NC1CC1 (stereo not shown) [Example 7-113, N-cyclopropyl-2-methyl-4-{8-[(3,3,3-trifluoro-2-hydroxypropyl)amino]imi-dazo[1,2-a]pyrazin-3-yl}benzamide]	36.7 nM
Cc1cc(-c2cnc3c(NCC(C)O)nccn23)ccc1C(=O)NC1CC1 (stereo not shown) [Example 7-115, N-cyclopropyl-4-{8-[(2-hydroxypropyl)amino]imi-dazo[1,2-a]pyrazin-3-yl}-2-methylbenzamide]	101 nM
COCCCNc1nccn2c(-c3ccc(C(=O)NC4CC4)c(C)c3)cnc12 [Example 7-116, N-cyclopropyl-4-{8-[(3-methoxypropyl)amino]imi-dazo[1,2-a]pyrazin-3-yl}-2-methylbenzamide]	141 nM
Cc1cc(-c2cnc3c(NCC(F)F)nccn23)ccc1C(=O)NC1CC1 [Example 7-118, N-cyclopropyl-4-{8-[(2,2-difluoroethyl)amino]imi-dazo[1,2-a]pyrazin-3-yl}-2-methylbenzamide]	70.3 nM
Cc1cc(-c2cnc3c(NCc4ccn(C)n4)nccn23)ccc1C(=O)NC1CC1 [Example 7-119, N-cyclopropyl-2-methyl-4-(8-{[(1-methyl-1H-pyrazol-3-yl)methyl]amino}imi-dazo[1,2-a]pyrazin-3-yl)benzamide]	298 nM
Cc1cc(-c2cnc3c(NCc4cnn(C)c4)nccn23)ccc1C(=O)NC1CC1 [Example 7-120, N-cyclopropyl-2-methyl-4-(8-{[(1-methyl-1H-pyrazol-4-yl)methyl]amino}imi-dazo[1,2-a]pyrazin-3-yl)benzamide]	93.4 nM
CCOC(C)CNc1nccn2c(-c3ccc(C(=O)NC4CC4)c(C)c3)cnc12 (stereo not shown) [Example 7-121, N-cyclopropyl-4-{8-[(2-ethoxypropyl)amino]imi-dazo[1,2-a]pyrazin-3-yl}-2-methylbenzamide]	154 nM
Cc1cc(-c2cnc3c(NCC(C)(C)O)nccn23)ccc1C(=O)NC1CC1 [Example 7-122, N-cyclopropyl-4-{8-[(2-hydroxy-2-methylpropyl)amino]imi-dazo[1,2-a]pyrazin-3-yl}-2-methylbenzamide]	171 nM
Cc1cc(-c2cnc3c(NCc4ccc(Cl)s4)nccn23)ccc1C(=O)NC1CC1 [Example 7-123, 4-(8-{[(5-chlorothiophen-2-yl)methyl]amino}imi-dazo[1,2-a]pyrazin-3-yl)-N-cyclopropyl-2-methylbenzamide]	22.5 nM
Cc1cc(-c2cnc3c(NCC4CCCCO4)nccn23)ccc1C(=O)NC1CC1 (stereo not shown) [Example 7-124, N-cyclopropyl-2-methyl-4-{8-[(tetrahydro-2H-pyran-2-ylmethyl)amino]imi-dazo[1,2-a]pyrazin-3-yl}benzamide]	80.8 nM
Cc1cc(-c2cnc3c(NC[C@@H](O)CO)nccn23)ccc1C(=O)NC1CC1 [Example 7-125, N-cyclopropyl-4-{8-[(2,3-dihydroxypropyl)amino]imi-dazo[1,2-a]pyrazin-3-yl}-2-methylbenzamide]	361 nM
Cc1cc(-c2cnc3c(NCc4c(F)cccc4F)nccn23)ccc1C(=O)NC1CC1 [Example 7-127, N-cyclopropyl-4-{8-[(2,6-difluorobenzyl)amino]imi-dazo[1,2-a]pyrazin-3-yl}-2-methylbenzamide]	47.1 nM
COc1cc(C(=O)NC2CC2)ccc1-c1cnc2c(NCC(C)C)nccn12 [Example 7-128, N-cyclopropyl-3-methoxy-4-{8-[(2-methylpropyl)amino]imi-dazo[1,2-a]pyrazin-3-yl}benzamide]	19.3 nM

Same assay, conditions: N-terminally GST-tagged human full length recombinant Mps-1; 10 μM ATP; 1 μM biotinylated peptide substrate; 60 min at 22° C.; read-out: Mps1 IC50

Structure (SMILES)	IC50
Cc1cc(-c2cnc3c(NCC(F)(F)C(F)(F)F)nccn23)ccc1C(=O)NC1CC1 [Example 7-112, N-cyclopropyl-2-methyl-4-{8-[(2,2,3,3,3-pentafluoropropyl)ami-no]imidazo[1,2-a]pyrazin-3-yl}benzamide]	81.6 nM
Cc1cc(-c2cnc3c(NCCCNC(=O)OC(C)(C)C)nccn23)ccc1C(=O)NC1CC1 [Example 7-117, tert-butyl [3-({3-[4-(cyclopropylcarbamoyl)-3-methylphenyl]imidazo[1,2-a]pyrazin-8-yl}amino)propyl]carbamate]	196 nM
